Test system: 186277-243-T-J2-PDC complex spheroid viability
Test: Anticancer human tumor 186277-243-T-J2-PDC patient-derived colon adenocarcinoma cell line growth inhibition [POLQ]
Conditions: for IC50: curve of first compound; for viability, T/C: stronger effect = lower value
Method in brief: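 Complex spheroid viability model combining PDC tumour cells with endothelial (HUVEC) and MSC stromal cells. Novobiocin, ART-558 or RP6685 were tested singly and in combination with standard and investigational anticancer drugs. Each was titrated in half-log steps from near clinical Cmax, or from 10 microM where Cmax was unknown.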

[1] = second compound 0.0316 µM, first compound 0.0316 µM
[2] = second compound 0.0316 µM, first compound 0.1 µM
[3] = second compound 0.0316 µM, first compound 0.316 µM
[4] = second compound 0.0316 µM, first compound 1 µM
[5] = second compound 0.0316 µM, first compound 3.16 µM
[6] = second compound 0.0316 µM, first compound 10 µM
[7] = second compound 0.1 µM, first compound 0.0316 µM
[8] = second compound 0.1 µM, first compound 0.1 µM
[9] = second compound 0.1 µM, first compound 0.316 µM
[10] = second compound 0.1 µM, first compound 1 µM
[11] = second compound 0.1 µM, first compound 3.16 µM
[12] = second compound 0.1 µM, first compound 10 µM
[13] = second compound 0.316 µM, first compound 0.0316 µM
[14] = second compound 0.316 µM, first compound 0.1 µM
[15] = second compound 0.316 µM, first compound 0.316 µM
[16] = second compound 0.316 µM, first compound 1 µM
[17] = second compound 0.316 µM, first compound 3.16 µM
[18] = second compound 0.316 µM, first compound 10 µM
[19] = second compound 1 µM, first compound 0.0316 µM
[20] = second compound 1 µM, first compound 0.1 µM
[21] = second compound 1 µM, first compound 0.316 µM
[22] = second compound 1 µM, first compound 1 µM
[23] = second compound 1 µM, first compound 3.16 µM
[24] = second compound 1 µM, first compound 10 µM
[25] = second compound 3.16 µM, first compound 0.0316 µM
[26] = second compound 3.16 µM, first compound 0.1 µM
[27] = second compound 3.16 µM, first compound 0.316 µM
[28] = second compound 3.16 µM, first compound 1 µM
[29] = second compound 3.16 µM, first compound 3.16 µM
[30] = second compound 3.16 µM, first compound 10 µM
[31] = second compound 10 µM, first compound 0.0316 µM
[32] = second compound 10 µM, first compound 0.1 µM
[33] = second compound 10 µM, first compound 0.316 µM
[34] = second compound 10 µM, first compound 1 µM
[35] = second compound 10 µM, first compound 3.16 µM
[36] = second compound 10 µM, first compound 10 µM
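Note: spheroids exposed to compounds for seven days.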
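Throughout, for viability, T/C: 100% = DMSO vehicle control viability.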

## C#Cc1c(F)ccc2cc(O)cc(-c3ncc4c(N5CC6CCC(C5)N6)nc(OCC56CCCN5CC(F)C6)nc4c3F)c12 (stereo unspecified) + Cc1cccc(N(C)C(=O)C2C(O)CCN2c2nc(C)cc(C(F)(F)F)c2C#N)c1
Second compound 0.0316 µM
  IC50: 0.0975 µM
Second compound 0.1 µM
  IC50: 0.113 µM
Second compound 0.316 µM
  IC50: 0.0799 µM
Second compound 1 µM
  IC50: 0.0842 µM
Second compound 3.16 µM
  IC50: 0.0639 µM
Second compound 10 µM
  IC50: 0.0328 µM
[1]
  viability, T/C: 81.1%
[2]
  viability, T/C: 49.3%
[3]
  viability, T/C: 21.4%
[4]
  viability, T/C: 8.81%
[5]
  viability, T/C: 6.82%
[6]
  viability, T/C: 4.22%
[7]
  viability, T/C: 80.7%
[8]
  viability, T/C: 53.5%
[9]
  viability, T/C: 21.9%
[10]
  viability, T/C: 9.85%
[11]
  viability, T/C: 6.56%
[12]
  viability, T/C: 4.18%
[13]
  viability, T/C: 86.9%
[14]
  viability, T/C: 41%
[15]
  viability, T/C: 16.9%
[16]
  viability, T/C: 8.42%
[17]
  viability, T/C: 6.35%
[18]
  viability, T/C: 5.85%
[19]
  viability, T/C: 89.8%
[20]
  viability, T/C: 43%
[21]
  viability, T/C: 19.6%
[22]
  viability, T/C: 11%
[23]
  viability, T/C: 6.21%
[24]
  viability, T/C: 4.34%
[25]
  viability, T/C: 80.6%
[26]
  viability, T/C: 30.4%
[27]
  viability, T/C: 11.1%
[28]
  viability, T/C: 6.02%
[29]
  viability, T/C: 6.21%
[30]
  viability, T/C: 5.42%
[31]
  viability, T/C: 51.6%
[32]
  viability, T/C: 18.2%
[33]
  viability, T/C: 11%
[34]
  viability, T/C: 5.4%
[35]
  viability, T/C: 4.3%
[36]
  viability, T/C: 3.05%

## COc1cc2cc(C(=O)CCC(=O)O)sc2cc1OC + Nc1ccc(C#CCN(C(=O)Cc2ncc(C(F)(F)F)cc2C(F)(F)F)c2ccc(F)cc2)nn1
Second compound 0.0316 µM
  IC50: > 10 µM
Second compound 0.1 µM
  IC50: > 10 µM
Second compound 0.316 µM
  IC50: > 10 µM
Second compound 1 µM
  IC50: > 10 µM
Second compound 3.16 µM
  IC50: > 10 µM
Second compound 10 µM
  IC50: > 10 µM
[1]
  viability, T/C: 83.5%
[2]
  viability, T/C: 87.3%
[3]
  viability, T/C: 92.9%
[4]
  viability, T/C: 88.7%
[5]
  viability, T/C: 93.4%
[6]
  viability, T/C: 85.6%
[7]
  viability, T/C: 96.3%
[8]
  viability, T/C: 98.5%
[9]
  viability, T/C: 91%
[10]
  viability, T/C: 100%
[11]
  viability, T/C: 90.3%
[12]
  viability, T/C: 103%
[13]
  viability, T/C: 97.5%
[14]
  viability, T/C: 87.5%
[15]
  viability, T/C: 87%
[16]
  viability, T/C: 91.9%
[17]
  viability, T/C: 89.9%
[18]
  viability, T/C: 97.8%
[19]
  viability, T/C: 96.1%
[20]
  viability, T/C: 96.5%
[21]
  viability, T/C: 92.2%
[22]
  viability, T/C: 94.3%
[23]
  viability, T/C: 94.8%
[24]
  viability, T/C: 83.2%
[25]
  viability, T/C: 78.8%
[26]
  viability, T/C: 105%
[27]
  viability, T/C: 90%
[28]
  viability, T/C: 90.7%
[29]
  viability, T/C: 98.9%
[30]
  viability, T/C: 93.5%
[31]
  viability, T/C: 106%
[32]
  viability, T/C: 94.8%
[33]
  viability, T/C: 81.5%
[34]
  viability, T/C: 90%
[35]
  viability, T/C: 90.5%
[36]
  viability, T/C: 96.5%

## O=C(Nc1ccc(O)c(NS(=O)(=O)c2ccc(F)cc2)c1)c1ccc(-c2ccccc2)cc1 + COC1C(OC(N)=O)C(O)C(Oc2ccc3c(O)c(NC(=O)c4ccc(O)c(CC=C(C)C)c4)c(=O)oc3c2C)OC1(C)C
Second compound 0.0316 µM
  IC50: > 10 µM
Second compound 0.1 µM
  IC50: > 10 µM
Second compound 0.316 µM
  IC50: > 10 µM
Second compound 1 µM
  IC50: > 10 µM
Second compound 3.16 µM
  IC50: > 10 µM
Second compound 10 µM
  IC50: > 10 µM
[1]
  viability, T/C: 89%
[2]
  viability, T/C: 113%
[3]
  viability, T/C: 107%
[4]
  viability, T/C: 99%
[5]
  viability, T/C: 105%
[6]
  viability, T/C: 94.3%
[7]
  viability, T/C: 107%
[8]
  viability, T/C: 105%
[9]
  viability, T/C: 102%
[10]
  viability, T/C: 98.2%
[11]
  viability, T/C: 107%
[12]
  viability, T/C: 93.1%
[13]
  viability, T/C: 96.2%
[14]
  viability, T/C: 104%
[15]
  viability, T/C: 116%
[16]
  viability, T/C: 104%
[17]
  viability, T/C: 119%
[18]
  viability, T/C: 96%
[19]
  viability, T/C: 90.8%
[20]
  viability, T/C: 101%
[21]
  viability, T/C: 116%
[22]
  viability, T/C: 95%
[23]
  viability, T/C: 125%
[24]
  viability, T/C: 99.4%
[25]
  viability, T/C: 90.1%
[26]
  viability, T/C: 103%
[27]
  viability, T/C: 111%
[28]
  viability, T/C: 103%
[29]
  viability, T/C: 105%
[30]
  viability, T/C: 91.5%
[31]
  viability, T/C: 91.9%
[32]
  viability, T/C: 111%
[33]
  viability, T/C: 103%
[34]
  viability, T/C: 103%
[35]
  viability, T/C: 108%
[36]
  viability, T/C: 101%

Source: PubChem BioAssay AID1963854 (Molecular Pharmacology Branch, DTP, NCI, 2024)
